Test results as given in patent US20240035033A1, “PREVENTION AND TREATMENT OF AGE-RELATED MACULAR DEGENERATION THROUGH SUPPRESSION OF CATHEPSIN S EXPRESSION” (CHUNG-ANG UNIVERSITY INDUSTRY-ACADEMIC COOPERATION …, priority 2022, published 2024).

Assays:
Format in all cases: cell-based, human
C3a and C5a = test: immunofluorescence analysis of C3a and C5a expression in RPE cells; details: siRNA 24 hours, Bay 1170-82 10 μM, control DMSO / control siRNA
Description: In order to confirm the inhibitory effect of complement activity in the case of treatment with an inhibitor of cathepsin S expression or activity, RPE cells were treated with cathepsin S siRNA (CTSS siRNA, CTSSiRNA) and then the effect of inhibiting complement activity was analyzed. At this time, NF-κB inhibitor were treated as a comparison group. Specifically, RPE cells were treated with control siRNA or CTSS siRNA for 24 hours in the presence or absence of NF-κB inhibitor Bay 1170-82 (10 μM), respectively. After that, immunofluorescence analysis was performed for the expression of C3a and C5a in RPE cells. Experimental methods and conditions were applied in the same manner as in Example 3.

HUVECs = test: tube formation of HUVECs treated with conditioned medium of RPE cells; details: conditioned medium of H2O2-treated control RPE cells, 2 hours
Description: (§1) In the case of treatment with an inhibitor of cathepsin S expression or activity, it was confirmed whether angiogenesis in RPE cells induced by oxidative stress was reduced. Specifically, the expression levels of PPARγ and VEGFA/AKT, which play key roles in neovascularization, differentiation, migration, and proliferation, were confirmed through western blotting experiments, and the experimental methods and conditions were applied in the same manner as in Example 2. In addition, to confirm the presence or absence of cell tube formation, HUVECs (1×10^5) were treated on a Matrigel-coated 96-well-plate with reduced growth factors, and then the cells were treated with a conditioned medium (CM) for 2 hours by treating RPE cells with CTSS siRNA and H2O2 at 37° C. for 48 hours, and images were analyzed with an inverted fluorescence microscope.

cathepsin S (CTSS) [1] = test: immunofluorescence analysis of cathepsin S in RPE cells; details: H2O2 50 μM, 48 hours
Description: Immunofluorescence analysis was performed to confirm the suppression of cathepsin S in cathepsin S knockdown RPE cells of Example 3-1. Specifically, after cells prepared in the same manner as in the mRNA expression level analysis were washed twice with sterile PBS and fixed with 4% paraformaldehyde at room temperature for 30 minutes, the fixation was stopped by washing the cells three times with PBS. The cells were permeabilized with PBS comprising 0.01% Triton X-100 […]. After blocking for 1 hour, the insert membrane was removed using a scalpel and placed on Parafilm prior to being incubated with a primary antibody (depending on the protein of interest). All primary antibodies were diluted 1:50 in 5% BSA and PBS and used, and cultured at 4° C. overnight. Thereafter, the cells were washed three times with PBS and a secondary FITC- or TRITC-conjugated antibody was diluted 1:50 and applied at room temperature for 1 hour. After 1 mg/ml DAPI was added 10 minutes before removing a secondary antibody to stain the nuclei, the cells were coated with a mounting medium and a glass coverslip was placed on top. The membrane/coverslip was fixed to the glass slide using a mounting medium, and cells were observed under a fluorescence microscope (Leica DFC7000T).

ARPE-19 cells = test: MTT viability of RPE cells according to H2O2 treatment; details: H2O2 6.25-100 μM, 48 hours, compared to the control
Description: In order to confirm the decrease in viability of retinal pigment epithelium cells (RPE cells, hereinafter referred to as RPE cells) according to H2O2 treatment, MTT analysis was performed, and the viability and iNOS expression of RPE cells according to H2O2 treatment were confirmed.
First, a human retinal-pigmented epithelial cell line (hereinafter referred to as ARPE-19 cells (ATCC, Manassas, VA, USA)) was used and inoculated into 96-well plates and cultured for 24 hours. Thereafter, the cells were treated with 6.25 μM 12.5 μM, 25 μM, 50 μM, and 100 μM H2O2 for 48 hours, a 3-(4,5-dimethylthiazol-2-yl)-2,5-diphenyl-tetrazolium bromide (MTT) solution was added to the medium, and the cells were cultured at 37° C. for 4 hours. The MTT-comprising medium was removed and the cells were lysed in 50 μl of DMSO. An optical density at 540 nm was confirmed using a microplate spectrophotometer (SpectraMax; Molecular Devices, Sunnyvale, CA, USA), and cell viability was determined by repeating each experiment three times to calculate an average value.

iNOS = iNOS expression in RPE cells according to H2O2 treatment (RT-PCR, western blot)
Description: In addition, the expression level of iNOS expressed in RPE cells according to H2O2 treatment was analyzed. Specifically, after RPE cells were treated with 10 μM, 50 μM, and 100 μM H2O2, relative iNOS mRNA expression levels were confirmed, and western blot experiments were performed. Total RNA was prepared using a Ribospin™ II kit from GeneAll Biotechnology (Seoul, South Korea) according to the manufacturer's recommendations. Total RNA (1 μg) was reverse transcribed into first-strand cDNA using an iScript™ cDNA Synthesis kit (Bio-Rad Laboratories, Inc., California, USA) according to the manufacturer's instructions, real-time reverse transcription-polymerase chain reaction (RT-PCR) was performed using a Thermal Cycler CFX96™ Real-Time PCR System (Bio-Rad Laboratories, USA), and each experiment was repeated three times to derive the results. RPE cells were washed with ice-cold PBS and then extracted with a protein lysis buffer (Intron Biotechnology, Seoul, South Korea). Protein samples of cell lysates were mixed with an equal volume of 2×SDS sample buffer, denatured by heating for 5 minutes and then separated on a 10% SDS-PAGE gel. After electrophoresis, proteins were transferred to a polyvinylidene difluoride membrane, and the membrane was blocked and washed using 5% BSA for 40 minutes. […]

PPARγ and VEGFA/AKT = test: western blot of angiogenic factors in RPE cells; details: RPE cells treated with H2O2
Description: as §1

cathepsin S (CTSS) [2] = test: cathepsin S expression in RPE cells under oxidative stress (mRNA, western blot)
Description: To confirm the expression of cathepsin S (CTSS) in RPE cells under oxidative stress conditions, RPE cells were treated with H2O2 and the expression of cathepsin S (CTSS) was determined. Specifically, the cells was treated with 10 μM and 50 μM H2O2, cathepsin S mRNA expression level analysis and western blot experiments were performed in order to confirm the expression of cathepsin S, and the same experimental method and conditions as in Example 1 were applied, except that cathepsin S-specific antibodies were used.

## Cc1ccc(S(=O)(=O)/C=C/C#N)cc1 [Bay 1170-82]
C3a and C5a
  expression of C3a (immunofluorescence): suppressed
  expression of C5a (immunofluorescence): suppressed

## OO [H2O2]
HUVECs
  tube formation: marked increase in tube formation
Cathepsin S (CTSS) [1]
  cathepsin S expression (red fluorescence): significantly increased
ARPE-19 cells
  cell viability (MTT): decrease in cell viability
iNOS; RPE cells, 50 μM and 100 μM H2O2
  relative iNOS mRNA levels: increased
iNOS; RPE cells, 10, 50, 100 μM H2O2
  iNOS protein (western blot): increased in a H2O2 concentration-dependent manner
PPARγ and VEGFA/AKT
  expression level of PPARγ (western blot): increased
  expression level of VEGFA/AKT (p-AKT) (western blot): increased
Cathepsin S (CTSS) [2]; 10 μM and 50 μM H2O2
  cathepsin S protein band (western blot): appeared thick and dark
Cathepsin S (CTSS) [2]; 10 μM and 50 μM H2O2, vs control
  relative mRNA level of cathepsin S: higher than that of the control
